From PubChem BioAssay AID330 (DTP/NCI, 2004) come the findings set out here.

“And” between values parts separate entries of the source, which are not always exact repeats. Equal entries are not always repeated. Toxic doses and inconclusive results are not listed.

This test relates to P388 leukemia ip, CD2F1 mice, survival T/C. Kind of test: NCI In Vivo Anticancer Drug Screen. Data for tumor model P388 Leukemia (intraperitoneal) in CD2F1 (CDF1) mice. The following applies: endpoint: median survival time, higher = longer survival. The procedure, abridged: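 Mice carrying the transplanted tumor received test compound or vehicle. Survival was recorded in each group, and the value is the treated-group measurement divided by that of the vehicle-treated control group.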

The mark [1] stands for this setting: dose: 12.5 mg/kg/injection, schedule: Q01DX009 (ip), vehicle: saline with Tween-80.
Setting [2] is: dose: 25.0 mg/kg/injection, schedule: Q01DX009 (ip), vehicle: saline with Tween-80.
The mark [3] stands for this setting: dose: 50.0 mg/kg/injection, schedule: Q01DX009 (ip), vehicle: saline with Tween-80.
The mark [4] stands for this setting: dose: 100.0 mg/kg/injection, schedule: Q01DX009 (ip), vehicle: saline with Tween-80.
Setting [5] is: dose: 200.0 mg/kg/injection, schedule: Q01DX009 (ip), vehicle: saline with Tween-80.

Regarding `C[n+]1ccc(Nc2ccc(NC(=O)c3ccc(Nc4cc[n+](C)c5ccc(N)cc45)cc3N)cc2)cc1`, the T/C runs as follows: (dose: 0.18 mg/kg/injection, schedule: Q01DX009 (ip), vehicle: saline with Tween-80) 111 % of control; (dose: 0.27 mg/kg/injection, schedule: Q01DX009 (ip), vehicle: saline with Tween-80) 124 % of control; (dose: 1.0 mg/kg/injection, schedule: Q01DX009 (ip), vehicle: saline with Tween-80) 157 % of control; (dose: 1.33 mg/kg/injection, schedule: Q01DX009 (ip), vehicle: saline with Tween-80) 154 % of control; (dose: 1.5 mg/kg/injection, schedule: Q01DX009 (ip), vehicle: saline with Tween-80) 163 % of control; (dose: 2.0 mg/kg/injection, schedule: Q01DX009 (ip), vehicle: saline with Tween-80) 200 % of control. Besides, the T/C reads like this: (dose: 3.0 mg/kg/injection, schedule: Q01DX009 (ip), vehicle: saline with Tween-80) 245 % of control; (dose: 3.13 mg/kg/injection, schedule: Q01DX009 (ip), vehicle: saline with Tween-80) 271 % of control; (dose: 4.5 mg/kg/injection, schedule: Q01DX009 (ip), vehicle: saline with Tween-80) 257 % of control; (dose: 5.0 mg/kg/injection, schedule: Q04DX003 (ip), vehicle: saline with Tween-80) 154 % of control; (dose: 6.25 mg/kg/injection, schedule: Q01DX009 (ip), vehicle: saline with Tween-80) 274 % of control; (dose: 7.5 mg/kg/injection, schedule: Q04DX003 (ip), vehicle: saline with Tween-80) 163 % of control. The T/C under setting [1] is 275 % of control and the T/C under setting [2] was 100 % of control.

`CN(C)C1CCc2ccccc2C1OC(=O)c1ccccc1` (configuration not stated): the T/C under setting [3] is 101 % of control and the T/C under setting [4] was 107 % of control.

Regarding `CN(C)CSc1nc2ccccc2s1`, the T/C (dose: 50.0 mg/kg/injection, schedule: Q01DX009 (ip), vehicle: Klucel (hydroxypropylcellulose) (HPC)) is 96 % of control; the T/C (dose: 100.0 mg/kg/injection, schedule: Q01DX009 (ip), vehicle: Klucel (hydroxypropylcellulose) (HPC)) was 94 % of control; the T/C (dose: 200.0 mg/kg/injection, schedule: Q01DX009 (ip), vehicle: Klucel (hydroxypropylcellulose) (HPC)) is 94 % of control; the T/C (dose: 400.0 mg/kg/injection, schedule: Q01DX009 (ip), vehicle: Klucel (hydroxypropylcellulose) (HPC)) was 95 % of control.

On to `CN(C)CCC1c2ccc(Cl)cc2CCc2cccnc21` (configuration not stated) (tested in a mixture with another compound), for which the T/C (dose: 50.0 mg/kg/injection, schedule: Q01DX005 (ip), vehicle: saline) was 107 % of control and the T/C (dose: 100.0 mg/kg/injection, schedule: Q01DX005 (ip), vehicle: saline) was 99 % of control.

As for `Brc1cc2cccnc2c2ccccc12`, the T/C by setting is: (dose: 100.0 mg/kg/injection, schedule: Q01DX001 (ip), vehicle: Klucel (hydroxypropylcellulose) (HPC)) 98 % of control; (dose: 200.0 mg/kg/injection, schedule: Q01DX001 (ip), vehicle: Klucel (hydroxypropylcellulose) (HPC)) 94 % of control; (dose: 400.0 mg/kg/injection, schedule: Q01DX001 (ip), vehicle: Klucel (hydroxypropylcellulose) (HPC)) 97 % of control.

On to `CC(C)(C)c1cc(/C=N/n2c(-c3ccccc3)nc3ccccc3c2=O)cc(C(C)(C)C)c1O`, for which the T/C is 98 % of control (dose: 60.0 mg/kg/injection, schedule: Q01DX005 (ip), vehicle: Klucel (hydroxypropylcellulose) (HPC)); 97 % of control (dose: 120.0 mg/kg/injection, schedule: Q01DX005 (ip), vehicle: Klucel (hydroxypropylcellulose) (HPC)); 90 % of control (dose: 240.0 mg/kg/injection, schedule: Q01DX005 (ip), vehicle: Klucel (hydroxypropylcellulose) (HPC)).

Consider `Cn1nc([N+](=O)[O-])nc1-c1ccccc1`, for which the T/C by setting is: under setting [3], 106 % of control; under setting [4], 98 % of control; under setting [5], 107 % of control; (dose: 400.0 mg/kg/injection, schedule: Q01DX009 (ip), vehicle: saline with Tween-80) 107 % of control.

`Nc1n[n+](-c2ccccc2)no1`: the T/C was 110 % of control (dose: 1.56 mg/kg/injection, schedule: Q01DX009 (ip), vehicle: water); 117 % of control (dose: 1.56 mg/kg/injection, schedule: Q03HX015 (ip), vehicle: water); 104 % of control (dose: 3.12 mg/kg/injection, schedule: Q01DX005 (ip), vehicle: water); 119 % of control (dose: 3.12 mg/kg/injection, schedule: Q03HX015 (ip), vehicle: water); 104 % of control and 108 % of control and 117 % of control (dose: 3.13 mg/kg/injection, schedule: Q01DX009 (ip), vehicle: water); 115 % of control (dose: 3.13 mg/kg/injection, schedule: Q03HX015 (ip), vehicle: water). For the same molecule, the T/C by setting is: (dose: 6.25 mg/kg/injection, schedule: Q01DX009 (ip), vehicle: saline) 123 % of control; (dose: 6.25 mg/kg/injection, schedule: Q01DX009 (ip), vehicle: water) 117 % of control and 118 % of control; (dose: 6.25 mg/kg/injection, schedule: Q03HX003 (ip), vehicle: water) 112 % of control; (dose: 12.5 mg/kg/injection, schedule: Q03HX003 (ip), vehicle: water) 117 % of control; (dose: 25.0 mg/kg/injection, schedule: Q01DX001 (ip), vehicle: water) 104 % of control; (dose: 25.0 mg/kg/injection, schedule: Q01DX009 (ip), vehicle: saline) 178 % of control. Besides, the T/C is, setting by setting: (dose: 25.0 mg/kg/injection, schedule: Q01DX009 (ip), vehicle: water) 169 % of control and 189 % of control and 195 % of control; (dose: 25.0 mg/kg/injection, schedule: Q03HX003 (ip), vehicle: water) 117 % of control; (dose: 25.0 mg/kg/injection, schedule: Q03HX015 (ip), vehicle: water) 161 % of control and 183 % of control; (dose: 50.0 mg/kg/injection, schedule: Q01DX001 (ip), vehicle: water) 120 % of control; (dose: 50.0 mg/kg/injection, schedule: Q01DX009 (ip), vehicle: saline) 214 % of control; (dose: 50.0 mg/kg/injection, schedule: Q03HX003 (ip), vehicle: water) 123 % of control. The T/C (dose: 100.0 mg/kg/injection, schedule: Q01DX001 (ip), vehicle: water) was 114 % of control.

For `COC1C(CO)OC(n2cnc3c(=S)nc(N)[nH]c32)C1O` (configuration not stated), the T/C by setting is: under setting [4], 122 % of control; (dose: 264.0 mg/kg/injection, schedule: Q04DX003 (ip), vehicle: saline with Tween-80) 109 % of control.

In the case of `Cc1ccc(CC2CC(=O)NC2=O)cc1` (configuration not stated), the T/C by setting is: (dose: 60.0 mg/kg/injection, schedule: Q01DX005 (ip), vehicle: saline with Tween-80) 105 % of control; (dose: 120.0 mg/kg/injection, schedule: Q01DX005 (ip), vehicle: saline with Tween-80) 93 % of control; (dose: 240.0 mg/kg/injection, schedule: Q01DX005 (ip), vehicle: saline with Tween-80) 96 % of control.

As for `CCOc1ccccc1N=Cc1c2ccccc2cc2ccccc12`, the T/C is, setting by setting: under setting [1], 100 % of control; under setting [2], 95 % of control; under setting [3], 98 % of control and 86 % of control; under setting [4], 89 % of control.

Take `CCOP(O)(=S)OCC.[Ce]`: the T/C (dose: 100.0 mg/kg/injection, schedule: Q04DX003 (ip), vehicle: Klucel (hydroxypropylcellulose) (HPC)) was 99 % of control; the T/C (dose: 200.0 mg/kg/injection, schedule: Q04DX003 (ip), vehicle: Klucel (hydroxypropylcellulose) (HPC)) is 100 % of control; the T/C (dose: 400.0 mg/kg/injection, schedule: Q04DX003 (ip), vehicle: Klucel (hydroxypropylcellulose) (HPC)) is 93 % of control.

With `Cc1cc2c3ccccc3[nH]c(=O)n2n1`, the T/C is 101 % of control (dose: 50.0 mg/kg/injection, schedule: Q04DX003 (ip), vehicle: saline); 100 % of control under setting [4]; 110 % of control (dose: 100.0 mg/kg/injection, schedule: Q04DX003 (ip), vehicle: saline with Tween-80); 101 % of control (dose: 100.0 mg/kg/injection, schedule: Q04DX003 (ip), vehicle: saline); 110 % of control under setting [5]; 120 % of control (dose: 200.0 mg/kg/injection, schedule: Q04DX003 (ip), vehicle: saline with Tween-80). Also, the T/C was 105 % of control (dose: 200.0 mg/kg/injection, schedule: Q04DX003 (ip), vehicle: saline); 100 % of control (dose: 400.0 mg/kg/injection, schedule: Q04DX003 (ip), vehicle: saline with Tween-80); 98 % of control (dose: 400.0 mg/kg/injection, schedule: Q04DX003 (ip), vehicle: saline).
